How the values were obtained:
Experiment in all cases: relative viability (nuclei count vs DMSO), 5 days (fraction); higher = more cells survive
[1] = compound: CS(=O)(=O)c1ccc(C(=O)Nc2ccc(Cl)c(-c3ccccn3)c2)c(Cl)c1 [Vismodegib] + CCNC(=O)c1noc(-c2cc(C(C)C)c(O)cc2O)c1-c1ccc(CN2CCOCC2)cc1 [Luminespib] (partner 0.01 µM)
In short: (§1)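 Lung cancer cell lines in 1536-well plates were dosed by pin tool the day after seeding, either with one drug alone or with a fixed anchor-drug dose plus five library-drug doses (not always all listed) in √10 steps. After 5 days, cells were fixed and their nuclei stained in one step (final 0.05% Triton X-100, 1% formaldehyde, 1 ug/ml Hoechst), then counted on 4× images. Relative viability is the nuclei count in treated wells divided by that in vehicle wells. Values are medians of duplicate plates.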

[2] = compound: CS(=O)(=O)c1ccc(C(=O)Nc2ccc(Cl)c(-c3ccccn3)c2)c(Cl)c1 [Vismodegib] + CC(C)C[C@H](NC(=O)[C@H](Cc1ccccc1)NC(=O)c1cnccn1)B(O)O [Bortezomib] (partner 0.002 µM)
In short: as §1

[3] = compound: N#CC[C@H](C1CCCC1)n1cc(-c2ncnc3[nH]ccc23)cn1 [Ruxolitinib] + CCNC(=O)c1noc(-c2cc(C(C)C)c(O)cc2O)c1-c1ccc(CN2CCOCC2)cc1 [Luminespib] (partner 0.01 µM)
In short: as §1

[4] = compound: CS(=O)(=O)c1ccc(-c2cnc(N)c(C(=O)Nc3ccccc3)n2)cc1 [VE-821] + Nc1nc2[nH]cc(CCc3ccc(C(=O)N[C@@H](CCC(=O)O)C(=O)O)cc3)c2c(=O)[nH]1 [Pemetrexed] (partner 0.2 µM)
In short: as §1

Cell Line	relative viability ([1]; first compound 0.08 µM)	relative viability ([1]; first compound 0.253 µM)	relative viability ([1]; first compound 0.8 µM)	relative viability ([1]; first compound 2.53 µM)	relative viability ([1]; first compound 8 µM)	relative viability ([2]; first compound 0.08 µM)	relative viability ([2]; first compound 0.253 µM)	relative viability ([2]; first compound 0.8 µM)	relative viability ([2]; first compound 2.53 µM)	relative viability ([2]; first compound 8 µM)	relative viability ([3]; first compound 0.08 µM)	relative viability ([3]; first compound 0.253 µM)	relative viability ([3]; first compound 0.8 µM)	relative viability ([3]; first compound 2.53 µM)	relative viability ([3]; first compound 8 µM)	relative viability ([4]; first compound 0.08 µM)	relative viability ([4]; first compound 0.253 µM)	relative viability ([4]; first compound 0.8 µM)	relative viability ([4]; first compound 2.53 µM)	relative viability ([4]; first compound 8 µM)
201T	1.02	1	1.07	1.11	0.968	1.13	1.07	1.09	1.09	1.09	1.1	1.22	1.24	1.17	1.18	0.333	0.303	0.324	0.293	0.231
A-427	0.912	0.831	0.856	0.876	0.824	0.991	0.945	0.856	0.968	1.09		0.969	1	0.715	0.813	0.997	0.949	0.947	0.998	0.474
ABC-1	0.577	0.381	0.551	0.672	0.405	0.332	0.244	0.331	0.299	0.324		0.736	0.987	0.509	0.437					
BEN	0.363	0.293	0.475	0.244	0.326	0.574	0.787	0.819	0.846	0.885	0.339	0.64	0.519	0.377	0.33	0.839	0.678	0.719	0.799	0.581
CAL-12T	0.531	0.366	0.436	0.503	0.575		0.882	0.91	0.935	0.999	0.364	0.771	0.448	0.305	0.335	1.22	1.14	1.04	1.1	0.759
COR-L23	0.672	0.779	0.586	0.675	0.75	1	0.938	0.983	0.916	1.09	0.749	0.738	0.676	0.511	0.519	0.198	0.211	0.196	0.197	0.16
COR-L 105	0.657	0.785	0.92	0.973	0.773	0.765	0.907	0.778	0.753	0.665	0.707	0.93	0.789	0.538	0.511	1.07	0.965	0.74	1.04	0.712
Calu-6						0.969	1.03	1.02	1.05	0.987										
ChaGo-K-1	0.565	0.622	0.598	0.525	0.516	0.971	0.957	0.845	0.744	1.04	0.635	0.655	0.605	0.492	0.517	0.28	0.333	0.274	0.261	0.253
EBC-1						0.481	0.564	0.567	0.559	0.67										
EKVX	0.749	0.797	0.929	0.864	0.896	1.1	1.09	1.1	1.06	1.03	0.85	0.877	0.975	0.816	0.804	0.422	0.373	0.419	0.341	0.227
EMC-BAC-2	1.14	1.07	1.22	1.12	1.21	1.08	1.03	1.05	1.11	1.05	1.09	1.16	1.15	1.04	0.947	0.45	0.391	0.427	0.371	0.308
EPLC-272H	0.298	0.224	0.263	0.235	0.442	0.988	0.783	0.864	1.14	0.723	0.632	0.224	0.241	0.295	0.174	0.347	0.36	0.218	0.141	0.0907
H3255	0.798	0.996	0.799	0.818	0.857	0.855	0.632	0.596	0.762	0.753	0.85	0.881	1.07	0.841	0.865	0.6	0.583	0.61	0.604	0.517
HARA	0.699	0.843	0.888	0.655	0.779	1.08	1.1	1.11	1.19	1.17	0.9	0.83	0.897	0.839	0.342	0.253	0.232	0.201	0.169	0.131

From the supplement of paper PMC10307832
